Experimental data: patent US20040138156A1, “Therapeutic regulation of deoxyribonuclease-1-like-3 activity” (priority 2002, published 2004)
Entries after “also recorded” stand apart in the source; their conditions may differ.

What was measured:
bone marrow macrophages = test: Induction of D1L3 in cultured bone marrow macrophages (anti-D1L3 immunoblot, RDA, zymogram); type: cell-based, C57BL mice; conditions: 100 U/ml for the interferons
Experimental: FIG. 22. Normal and induced expression of D1L3 in murine macrophages. […] In anti-D1L3 blots of cell lysates, the protein is seen both as a ^˜34 kDa uncleaved molecule and a ^˜28 kDa cleaved molecule. […] Cells were plated on serum-coated tissue culture dishes and incubated overnight, the next morning, non-adherent cells (N) were rinsed vigorously with PBS 1×, and both adeherent (A) and non-adherent cells (N) from C57BL, NZB/W, BXSB, and MRL were lysed and immunoblotted with anti-D1L3. While the ^˜34 kDa size band consistent with uncleaved D1L3 is present in both adherent and non-adherent, the cleaved form (^˜28 kDa) is present almost exclusively in the adherent population of presumed macrophages. Also noticable are the higher levels of expression of D1L3 in the 3 latter lupus strains. Panel B: Untreated bone marrow macrophages from NZB/WF1 mice have a much higher baseline expression expression of D1L3 than C57BL macrophages.
Induction is present in macrophages from both strain though the absolute level of induction appears greater in C57BL than in the SLE-prone NZB/W F1 strain. NZB/W protein loads in Ifn-γ-negative lane is slightly underloaded relative to actin. Panel C: Bone marrow macrophages isolated from bone marrow (via adherence) from MRL and C57BL mice, and cultured for 2 days in vitro, were induced by Ifn-γ. […] No induction of D1L3, RDA-DNASE, or zymographic DNASE activity is evident upon tratement with 100 U/ml of Ifn-alpha. […] Panel D: Bone marrow macrophages from C57BL and MRL mice cultured for 7 days in the presence of GM-CSF were induced with Ifn-γ, again showing the higher baseline levels of 28 kDa enzyme in the lupus prone strain, and in C57BL showing induction of levels aftern Ifn-γ. […]
(§1) Assays of Murine Cells. […] Splenocytes were counted using a hemochromocytometer, and plated at 2 million cells/ml on plastic 6-well Falcon tissue culture dishes (Becton Dickinson) in RPMI with 10% FCS. […]

[1] = test system: bone marrow-derived macrophages; test: BT activity of media conditioned by Ifn-γ treated bone marrow-derived macrophages, overlaid on HeLa cells; type: cell-based, C57BL mice; conditions: 100 U/ml; b134: 1000 U/ml vs 100U/ml
Text: FIG. 29. Media conditioned by Ifn-γ treated macrophages from C57BI, but not NZB/W F1 mice is able to confer an in vitro barrier to liposomal gene transduction (BT). Panel A: Media conditioned by interferon-g (Ifn-γ) treated bone marrow-derived macrophages from C57 BL confers a barrier to liposomal transfection to HeLa. […] Panel B: As interferon dose increased, the ability by C57BL macrophages to confer a barrier to transfection increased. In the absence of Ifn-γ, macrophages confer a weaker barrier. Panel C: Interferon gamma induces both DNASE activity by RDA and a DNASE band compatible with DNASE1L3 at 28 kD, plus induces a BT activity. Samples were from macrophages from two C57BL mice (B1 and B2). In the left register is pre- and post interferon RDAs, in the middle register, pre and post interferon, and in the right register are the BT assays (GFP immunoblots of tranfected HeLa cells) on HeLa cells, including HeLa cells treated directly with interferon gamma for 48 hours. Media conditioned for 48 hours. Panel D: BT activity in macrophage-conditioned media from NZB/W F1 (NZ) or C57BL (BL). […]
as §1

HeLa cells = test: BT assay: liposomal N1-eGFP transfection of HeLa cells in DNASE-conditioned media, GFP immunoblot; type: cell-based; conditions: equivalent doses of Ifn-γ, no macrophages
Experimental: In the main assay, an eukaryotic marker such as green fluorescent protein (GFP) expression plasmid complexed with a lipid reagent is transfected into HeLa cells incubated in control media, D1L3-conditioned media, or D1-conditioned media (FIG. 4). The assay is not limited to the use of GFP as a marker, but could use any of many expressed biomarkers encoded by nucleotides that can be assayed either immunochemistry, fluorescent detection, or enzymatic detectection, and these include but are not circumscribed to luciferase, chloramphenicol acetyl-transferase, antibiotic or chemical resistance genes, Beta-galactosidase, FLAG-, myc-hemaglutinnin-, or other epitope tagged molecules, as well as other markers of gene or nucleotide transduction. The endpoint of the assay is the detection of a synthesized protein, but could easily have been the detection of a transcribed gene product, since the assay ultimately measures the ability of D1L3 added the media/milieu overlaying the cells to block the ultimate association of an expressible plasmid with the transcriptional machinery.
Transfection Reagents and Resistance Assays. Lipofection of respective pcDNA3.1-D1 or -D3 ([…] purified with Promega Wizard Plus DNA system) was performed independently into 1-2 million HeLa cells, which produce a low background of secreted nuclease activity, when grown in DMEM with 10% FCS (LifeTech) in 6 well culture plates (Becton-Dickinson). […] Media of the transfected cells were conditioned for 36-48 hours and served as source of the respective enzymes. Nuclease activity in conditioned supernatant was measured by RDAs, zymograms and by testing activity against supercoiled pBluescript (Stratagene).
To test for the ability of the nucleases to block transfection, the media in individual wells of naive HeLa cells were replaced with conditioned media, and cells transfected with […] of N1-eGFP plasmid (Clontech) using various transfection reagents (FIG. 11) and their respective protocols. GFP expression by immunoblot directly correlated with transfection efficiency in present experiments. Thus, transfection efficiency was compared by densitometric analysis of GFP immunoblots.
GFP expression was also examined by fluorescent microscopy using a FITC filter. For microscopy, cells were fixed for 5 minutes in 4% paraformaldehyde dissolved into 1% PBS.
Antibody Reagents and Immunoblotting. After 24-36 hours, cells transfected with N1-eGFP were lysed in SDS-buffer and immunoblotted for expression with anti-GFP at 1:5000 dilution (Clontech). To confirm nearly equal protein loading per lane, anti-β-actin monoclonal antibody at 1:7,000 dilution (Sigma) were prepared. For immunoblots, […] protein was eletrophoretically separated by 12% SDS-PAGE gel, followed by electrotransfer to Immobilon-P membranes (Millipore) for expression studies. Immunoblotting was performed using ECL detection (Amersham).
Transfection efficiency was compared, wherever possible, by pixel densitometry of the scanned images using Scion Image 4.02 software.

With “Ifn-γ: interferon-gamma (Genzyme), macrophage activator” the “induction of D1L3 in macrophages” value (bone marrow macrophages) was “inducible; also recorded: significant induction of D1L3 levels”, the “BT activity of media conditioned by treated macrophages” value [1] was “confers BT; also recorded: Increased BT activity” and the “BT of HeLa cells treated with Ifn-γ or of media conditioned by them” value (HeLa cells) was “neither confer nor possess a BT”.
